Here are results for 1 compound from PMC2904477 (Biochemistry, 2010).

For experiment [1], the target named is T1, wild-type CB1 receptor (Homo sapiens, UniProt P21554). As to conditions: [3H]CP55940 saturation binding, mean ± SEM.
Experiment [2] has as its target T2, K402Q/R405Q/R409Q CB1 receptor (Homo sapiens, UniProt P21554, K402Q/R405Q/R409Q). The settings on record: [3H]CP55940 saturation binding, mean ± SEM.
In experiment [3] the target is T3, L404A/F408A/F412A CB1 receptor (Homo sapiens, UniProt P21554, F408A/F412A/L404A). As to conditions: [3H]CP55940 saturation binding, mean ± SEM.
For another experiment, the target named is L404A CB1 receptor (Homo sapiens, UniProt P21554, L404A). As to conditions: [3H]CP55940 saturation binding.
In the next experiment the target is F408A CB1 receptor (Homo sapiens, UniProt P21554, F408A). As to conditions: [3H]CP55940 saturation binding.
The next experiment has as its target F412A CB1 receptor (Homo sapiens, UniProt P21554, F412A). As to conditions: [3H]CP55940 saturation binding.
The next experiment addresses L404F/F408L CB1 receptor (Homo sapiens, UniProt P21554, F408L/L404F). As to conditions: [3H]CP55940 saturation binding.
In another experiment the target is L404F/F412L CB1 receptor (Homo sapiens, UniProt P21554, F412L/L404F). The settings on record: [3H]CP55940 saturation binding.
For experiment [4], the target named is T1, wild-type CB1 receptor. As to conditions: CP55940 dose-response; wild-type receptor (reference).
The target of experiment [5] is T2, K402Q/R405Q/R409Q CB1 receptor. As to conditions: CP55940 dose-response, mean ± SEM.
The target of experiment [6] is T3, L404A/F408A/F412A CB1 receptor. The settings on record: CP55940 dose-response, mean ± SEM.

T3 sequence (P21554 whole entry L404A/F408A/F412A): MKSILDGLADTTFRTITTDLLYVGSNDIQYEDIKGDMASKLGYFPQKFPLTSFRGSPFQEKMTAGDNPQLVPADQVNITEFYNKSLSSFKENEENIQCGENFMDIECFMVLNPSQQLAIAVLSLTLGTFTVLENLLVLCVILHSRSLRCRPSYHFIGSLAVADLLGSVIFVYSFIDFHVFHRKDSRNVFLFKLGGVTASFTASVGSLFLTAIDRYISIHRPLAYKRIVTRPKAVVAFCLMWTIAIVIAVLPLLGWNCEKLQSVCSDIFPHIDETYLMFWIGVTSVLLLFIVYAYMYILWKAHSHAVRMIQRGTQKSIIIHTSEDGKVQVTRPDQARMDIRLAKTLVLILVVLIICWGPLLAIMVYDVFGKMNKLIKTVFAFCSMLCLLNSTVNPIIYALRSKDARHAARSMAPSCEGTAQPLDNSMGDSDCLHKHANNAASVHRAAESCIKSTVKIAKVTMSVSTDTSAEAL
T2 sequence (P21554 whole entry K402Q/R405Q/R409Q): as the sequence (P21554 whole entry L404A/F408A/F412A) above, with K402Q, A404L, R405Q, A408F, R409Q, A412F counted along it
T1 sequence (P21554 whole entry): as the sequence (P21554 whole entry L404A/F408A/F412A) above, with A404L, A408F, A412F counted along it
F408A CB1 receptor, sequence (P21554 whole entry F408A): as the sequence (P21554 whole entry L404A/F408A/F412A) above, with A404L, A412F counted along it
L404F/F412L CB1 receptor, sequence (P21554 whole entry L404F/F412L): as the sequence (P21554 whole entry L404A/F408A/F412A) above, with A404F, A408F, A412L counted along it
F412A CB1 receptor, sequence (P21554 whole entry F412A): as the sequence (P21554 whole entry L404A/F408A/F412A) above, with A404L, A408F counted along it
L404A CB1 receptor, sequence (P21554 whole entry L404A): as the sequence (P21554 whole entry L404A/F408A/F412A) above, with A408F, A412F counted along it
L404F/F408L CB1 receptor, sequence (P21554 whole entry L404F/F408L): as the sequence (P21554 whole entry L404A/F408A/F412A) above, with A404F, A408L, A412F counted along it

As to `CCCCCCC(C)(C)c1ccc([C@@H]2C[C@H](O)CC[C@H]2CCCO)c(O)c1` [CP55940, (1R,3R,4R)-3-[2-hydroxy-4-(1,1-dimethylheptyl)phenyl]-4-(3-hydroxypropyl)cyclohexan-1-ol], the Bmax was found to be 3499 ± 129 fmol/mg at wild-type CB1 receptor [1]; 3118 ± 142 fmol/mg in [2]; 867 ± 80 fmol/mg in experiment [3]; 3158 ± 135 fmol/mg at L404A CB1 receptor; 4133 ± 105 fmol/mg at F408A CB1 receptor; 4062 ± 80 fmol/mg at F412A CB1 receptor. Further, the figures for the Bmax on L404F/F408L CB1 receptor and on L404F/F412L CB1 receptor were 4523 ± 239 fmol/mg and 4531 ± 177 fmol/mg, respectively. Further, the “GTPγS Emax” value at wild-type CB1 receptor [4] is 100.0 % WT; in [5] it was 80.6 ± 2.0 % WT; in experiment [6] it was 14.4 ± 1.9 % WT.
